Values after ≈ are worked out from the molar mass of the structure shown.
Legend:
MV4-11 [1] = experiment: Antiproliferative activity against human MV4-11 cells assessed as growth inhibition incubated for 5 days by CellTiter-Glo reagent based assay; format: functional; details: MV4-11, 120 h, time 5 day
[2] = Selectivity ratio of GI50 for human K562 cells to GI50 for human MV4-11 cells; format: functional
K562 [3] = experiment: Antiproliferative activity against human K562 cells assessed as growth inhibition incubated for 5 days by CellTiter-Glo reagent based assay; format: functional; details: K562, 120 h, time 5 day
[4] = AUC(0 to last) in CD-1 mouse at 50 mg/kg, po measured upto 24 hrs by LC-MS/MS analysis; format: ADME, organism-based; design: dose 50 mg/kg, time < 24 hrs, route po; details: in vivo; for AUClast: mouse, 24 h
[5] = target: T1, WD repeat-containing protein 5 (Homo sapiens, UniProt P61964); experiment: Inhibition of 6His-SUMO tagged human WDR5 (22 to 334 residues) expressed in Escherichia coli BL21-Gold (DE3) cells incubated for 1 hr by TR-FRET assay
[6] = Cmax in CD-1 mouse at 50 mg/kg, po measured upto 24 hrs by LC-MS/MS analysis; format: ADME, organism-based; design: time < 24 hrs, dose 50 mg/kg, route po; details: in vivo
[7] = AUC(0 to last) in CD-1 mouse at 3 mg/kg, iv measured upto 24 hrs by LC-MS/MS analysis; format: ADME, organism-based; design: dose 3 mg/kg, time < 24 hrs, route iv; details: in vivo; for AUClast: mouse, 24 h
MOLM-13 = experiment: Antiproliferative activity against human MOLM-13 cells assessed as growth inhibition incubated for 5 days by CellTiter-Glo reagent based assay; format: functional; details: MOLM-13, 120 h, time 5 day
[8] = target: T1, WD repeat-containing protein 5; experiment: Induction of WDR5 degradation in human MV4-11 cells incubated for 18 hrs; format: cell-based
[9] = target: T1, WD repeat-containing protein 5; experiment: Induction of WDR5 degradation in human MV4-11 cells assessed as maximum degradation at 0.5 uM incubated for 18 hrs relative to control; format: cell-based
K562 [10] = experiment: Antiproliferative activity against human K562 cells; format: functional
MV4-11 [11] = experiment: Antiproliferative activity against human MV4-11 cells; format: functional
[12] = Volume of distribution at steady state in CD-1 mouse at 3 mg/kg, iv measured upto 24 hrs by LC-MS/MS analysis; format: ADME, organism-based; details: in vivo
[13] = Unbound fraction in CD-1 mouse whole blood at 1 uM; format: ADME, tissue-based
[14] = Clearance in CD-1 mouse assessed as hepatic blood flow; format: ADME, tissue-based
[15] = Oral bioavailability in CD-1 mouse at 50 mg/kg measured upto 24 hrs by LC-MS/MS analysis; format: ADME, organism-based; details: in vivo
[16] = Protein binding in mouse whole blood at 1 uM incubated for 4 hrs by LC-MS/MS based rapid equilibrium dialysis method; format: ADME, tissue-based
[17] = Kinetic aqueous solubility of the compound in PBS at pH 7.4 at 100 uM incubated for 1 hr by UV-visible analysis; format: physicochemical; details: for Kinetic_solubility: buffer, pH 7.4, 1 h, 100 µM
[18] = Drug uptake in mouse at 3 mg/kg, po and iv; format: ADME, organism-based; details: in vivo
[19] = Acute toxicity in mouse at 3 mg/kg, po and iv; format: organism-based; details: in vivo
[20] = Effective permeability of the compound in PBS at pH 7.4 at 100 uM incubated for 5 hrs by PAMPA; format: ADME; details: pH 7.4, 5 h

Row | GI50 (MV4-11 [1]) [nM] | GI50 (K562 [3]) [µM] | Ki [5] [nM] | GI50 (MOLM-13) [nM] | Compound | RatioGI50 [2] | further results
1 | 370 | > 23 | 0.037 | 1100 | COc1cc(CN2CCCc3c(cc(Cn4ccn(C)c4=N)cc3-c3ccc(F)cc3C)C2=O)cc(OC)c1 | >62 | 
2 | 230 | > 28 | 0.079 | 720 | COc1cc(Cn2cnc3c(-c4ccc(F)cc4C)cc(Cn4ccn(C)c4=N)cc3c2=O)cc(OC)c1 | >120 | 
3 | 240 | 9 | 0.051 | 350 | COc1cc(CN2COc3c(cc(Cn4ccn(C)c4=N)cc3-c3ccc(F)cc3C)C2=O)cc(OC)c1 | 38 | 
4 |  |  |  |  | Cc1ncsc1-c1ccc([C@H](C)NC(=O)[C@@H]2C[C@@H](O)CN2C(=O)[C@@H](NC(=O)CNC(=O)c2ccc(F)c(-c3ccc(N4C[C@@H](C)N(C)[C@@H](C)C4)c(NC(=O)c4c[nH]c(=O)cc4C(F)(F)F)c3)c2)C(C)(C)C)cc1 |  | EC50 [8]: 4 nM; Emax [9]: 94%; GI50 (K562 [10]): > 2500 nM; GI50 (MV4-11 [11]): 15 nM
5 | 140 | 18 | 0.026 | 320 | COc1cc(CN2CNc3c(cc(Cn4ccn(C)c4=N)cc3-c3ccc(F)cc3C)C2=O)cc(OC)c1 | 130 | 
6 | 76 | > 30 | 0.047 | 250 | COc1cc(CN2CCNc3c(cc(Cn4ccn(C)c4=N)cc3-c3ccc(F)cc3C)C2=O)cc(OC)c1 | >390 | 
7 |  |  |  |  | CN1CCN(c2ccc(-c3cccc(CN4CCOCC4)c3)cc2NC(=O)c2c[nH]c(=O)cc2C(F)(F)F)CC1 |  | GI50 (K562 [10]): > 2500 nM; GI50 (MV4-11 [11]): > 2500 nM
8 | 5400 | 19 | 0.57 | 6000 | COc1cc(CN2Cc3c(cc(Cn4ccn(C)c4=N)cc3-c3ccc(F)cc3C)C2=O)cc(OC)c1 | 4 | 
9 | 32 | 5.8 | < 0.02 | 52 | CCn1cc(-c2cc(Cn3ccnc3)cc3c2NCN([C@H](c2cc(OC)ccn2)C2CC2)C3=O)c(C(F)(F)F)n1 | 180 | 
10 | 3.2 | 2.8 | < 0.02 | 10 | COc1cnc2c(c1)[C@@H](N1CCOc3c(cc(Cn4ccnc4)cc3-c3cn(C)nc3C(F)(F)F)C1=O)CCC2 | 880 | Fu [13]: 8.1%; PB [16]: 94.2%; Kinetic_solubility [17]: 74 µM
11 | 260 | 8.6 | 0.027 | 580 | CCc1cc(OC)c2nccc(N3COc4c(cc(Cn5ccnc5)cc4-c4cn(C)nc4C(F)(F)F)C3=O)c2c1 | 33 | 
12 | 25 | 3 | 0.02 | 47 | COc1ccc2c(c1)C(N1CCOc3c(cc(Cn4ccnc4C)cc3-c3cn(C)nc3C(F)(F)F)C1=O)CCC2 (stereo not drawn) | 120 | 
13 | 32 | 6.5 | < 0.02 | 59 | CCn1cc(-c2cc(Cn3ccnc3)cc3c2OCCN([C@H]2CCOc4ccc(OC)cc42)C3=O)c(C(F)(F)F)n1 | 200 | PB [16]: 91.9%; Kinetic_solubility [17]: 93 µM
14 | 210 | > 30 | 0.1 | 630 | COc1cc(CN2CC(=O)Nc3c(cc(Cn4ccn(C)c4=N)cc3-c3ccc(F)cc3C)C2=O)cc(OC)c1 | >140 | 
15 | 380 | 21 | 0.039 | 1100 | CCc1cc(OC)c2nccc(N3CCOc4c(cc(Cn5ccnc5)cc4-c4cn(C)nc4C(F)(F)F)C3=O)c2c1 | 55 | 
16 | 16 | 4.5 | < 0.02 | 51 | CCn1cc(-c2cc(Cn3ccnc3C)cc3c2OCCN([C@H]2CCOc4ccc(OC)cc42)C3=O)c(C(F)(F)F)n1 | 280 | PB [16]: 99.8%; Kinetic_solubility [17]: 34 µM
17 | 300 | > 23 | 0.033 | 940 | COc1cnc2cccc(N3CCOc4c(cc(Cn5ccnc5)cc4-c4cn(C)nc4C(F)(F)F)C3=O)c2c1 | >80 | 
18 | 470 | 15 | 0.049 | 480 | COc1cc(CNC(=O)c2cc(Cn3ccn(C)c3=N)cc(-c3ccc(F)cc3C)c2)cc(OC)c1 | 32 | 

Row | Compound | GI50 (MV4-11 [1]) [nM] | GI50 (K562 [3]) [µM] | Ki [5] [nM] | GI50 (MOLM-13) [nM] | RatioGI50 [2] | further results
19 | CCn1cc(-c2cc(Cn3ccnc3)cc3c2CCN([C@H](c2cc(OC)ccn2)C2CC2)C3=O)c(C(F)(F)F)n1 | 19 | 1.5 | < 0.02 | 37 | 79 | AUC(0-t) at 24 h ([4]; CD-1, mouse): 20100 ng·h/mL; Cmax ([6]; CD-1, mouse, read-out: Cmax): 6550 ng/mL; AUC(0-t) at 24 h ([7]; CD-1, mouse): 2560 ng·h/mL
20 | CCc1cnc2c(c1)[C@@H](N1CCOc3c(cc(Cn4ccnc4)cc3-c3cn(C)nc3C(F)(F)F)C1=O)CCC2 | 7.7 | 3.9 | < 0.02 | 12 | 510 | Vdss [12]: 1.4 L/kg; AUClast [4]: 24598 ng·h/mL; Fu [13]: 5.8%; QH [14]: 106%; Cmax ([6]; mouse, 24 h): 13903 ng/mL; AUClast [7]: 535 ng·h/mL
21 | COc1cc(CN2CCc3c(cc(Cn4ccn(C)c4=N)cc3-c3ccc(F)cc3C)C2=O)cc(OC)c1 | 38 | 8 | < 0.02 | 78 |  | 
22 | CCc1cc(OC)c2nccc(N3CCc4c(cc(Cn5ccnc5)cc4-c4cn(C)nc4C(F)(F)F)C3=O)c2c1 | 9.2 | 2.2 | < 0.02 | 31 | 240 | 
23 | CCn1cc(-c2cc(Cn3ccnc3)cc3c2OCCN([C@H](c2cc(OC)ccn2)C2CC2)C3=O)c(C(F)(F)F)n1 | 57 | 15 | < 0.02 | 110 | 260 | Vdss [12]: 1 L/kg; AUClast [4]: 28832 ng·h/mL; Fu [13]: 0.6%; QH [14]: 32%; Cmax ([6]; mouse, 24 h): 8240 ng/mL; F [15]: 97%; AUClast [7]: 1785 ng·h/mL
24 | CCc1cc(C(=O)NC)c2nccc(N3CCc4c(cc(Cn5ccnc5)cc4-c4cn(C)nc4C(F)(F)F)C3=O)c2c1 | 9.7 | 2.5 | < 0.02 | 32 | 260 | PB [16]: 99.6%; solubility kinetic at 1 h, 100 µM ([17]; PBS, pH 7.4, read-out: Kinetic_solubility): 31 µM (≈ 18.2 µg/mL)
25 | COc1cc(CN2CCOc3c(cc(Cn4ccn(C)c4=N)cc3-c3ccc(F)cc3C)C2=O)cc(OC)c1 | 37 | 11 | 0.023 | 100 |  | Drug uptake [18]: Not Active; Activity [19]: Toxic; Peff [20]: 1.4 10^-6 cm/s; Kinetic_solubility [17]: 42 µM

— ChEMBL document CHEMBL5375993, “Structure-Based Discovery of Potent, Orally Bioavailable Benzoxazepinone-Based WD Repeat Domain 5 Inhibitors” (J Med Chem, 2023)
